Biological target: T1, Androgen receptor (Rattus norvegicus, UniProt P15207)
T1 sequence (P15207 whole entry): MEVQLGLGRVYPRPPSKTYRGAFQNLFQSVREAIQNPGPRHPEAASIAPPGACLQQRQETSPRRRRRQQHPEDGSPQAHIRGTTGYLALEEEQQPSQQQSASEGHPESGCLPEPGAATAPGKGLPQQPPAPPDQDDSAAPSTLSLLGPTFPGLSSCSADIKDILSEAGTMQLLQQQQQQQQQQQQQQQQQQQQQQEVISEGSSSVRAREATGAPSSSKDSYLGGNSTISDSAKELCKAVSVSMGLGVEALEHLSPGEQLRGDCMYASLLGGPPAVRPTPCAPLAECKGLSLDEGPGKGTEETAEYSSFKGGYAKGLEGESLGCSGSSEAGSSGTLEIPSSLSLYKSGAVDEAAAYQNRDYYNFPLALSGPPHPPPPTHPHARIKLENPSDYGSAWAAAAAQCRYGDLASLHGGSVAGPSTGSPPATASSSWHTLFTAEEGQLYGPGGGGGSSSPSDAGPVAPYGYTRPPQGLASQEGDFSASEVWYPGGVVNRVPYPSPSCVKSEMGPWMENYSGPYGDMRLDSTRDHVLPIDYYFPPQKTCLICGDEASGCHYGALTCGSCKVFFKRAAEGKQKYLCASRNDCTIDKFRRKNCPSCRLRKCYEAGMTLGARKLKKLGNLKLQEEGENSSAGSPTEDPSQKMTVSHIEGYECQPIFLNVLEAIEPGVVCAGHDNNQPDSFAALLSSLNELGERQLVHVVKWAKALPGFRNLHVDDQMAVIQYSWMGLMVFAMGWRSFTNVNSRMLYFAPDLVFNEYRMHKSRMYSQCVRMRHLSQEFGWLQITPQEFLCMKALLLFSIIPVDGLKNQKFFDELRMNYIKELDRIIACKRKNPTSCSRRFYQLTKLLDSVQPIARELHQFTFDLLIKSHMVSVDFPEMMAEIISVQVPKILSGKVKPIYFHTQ
Assay: Competitive Radioligand Displacement Assay
Conditions: pH 7.4; 4 °C

SMILES | Ki
CC(O)(COc1ccc([N-]C#[S+])cc1)C(=O)Nc1ccc([N+](=O)[O-])c(C(F)(F)F)c1 [(2S)-2-hydroxy-3-(4-isothiocyanatophenoxy)-2-methyl-N-[4-nitro-3-(trifluoromethyl)phenyl]propanamide] | 4.62 nM
C[C@](O)(COc1ccc(I)cc1)C(=O)Nc1ccc([N+](=O)[O-])c(C(F)(F)F)c1 [(2S)-2-hydroxy-3-(4-iodophenoxy)-2-methyl-N-[4-nitro-3-(trifluoromethyl)phenyl]propanamide] | 30 nM
C[C@](O)(COc1ccc(Br)cc1)C(=O)Nc1ccc([N+](=O)[O-])c(C(F)(F)F)c1 [(2S)-3-(4-bromophenoxy)-2-hydroxy-2-methyl-N-[4-nitro-3-(trifluoromethyl)phenyl]propanamide] | 11.6 nM
CC(=O)Nc1ccc(SC[C@](C)(O)C(=O)Nc2ccc([N+](=O)[O-])c(C(F)(F)F)c2)cc1 [(2R)-3-[(4-acetamidophenyl)sulfanyl]-2-hydroxy-2-methyl-N-[4-nitro-3-(trifluoromethyl)phenyl]propanamide] | 4.9 nM
